Laboratory results reported in US8975232B2, “Macrocyclic kinase inhibitors and uses thereof” (President and Fellows of Harvard College, priority 2010, dated 2015).
Where two headings read alike, the source gives them in different places.

Key:
[1] = target: MAPKAPK2 (Homo sapiens, UniProt P49137); test: In vitro selection of DNA-templated macrocycle library against GST-fused target; format: binding; details: one round of selection; DNA-linked library member
Description: (§1) Multiple representatives were chosen from each protein class so that we could compare selection results within protein families. In total, we performed a single round of in vitro selection against 36 protein targets. Additionally, we also performed a selection for binding to GST (with no fused target protein) immobilized on glutathione-linked resin. Although successive rounds of selection (with or without DNA amplification and translation between rounds) can multiply net enrichment factors,^29 we hypothesized that recent advances in ultra high-throughput DNA sequencing would enable even modest enrichment factors to be robustly detected, and the findings in this work are the result of a single round of selection on each protein target.
(§2) Following in vitro selection, DNA templates linked to target-binding macrocycles were amplified in PCR reactions using primers containing “barcode” sequences specific to each selection (FIG. 3). We also amplified DNA templates from eight aliquots of the unselected library to determine the initial abundance of each library member. A set of 12 five-base barcodes used in pairwise combinations provided sufficient encoding complexity for one round of selection against 36 protein targets, a control selection against immobilized GST, and eight pre-selection library samples (Table 3). These barcodes were designed to differ by at least three bases from one another so that common DNA sequencing errors would not preclude barcode assignment. After affinity selection and PCR amplification, barcoded samples were combined in equimolar amounts and submitted for ultra high-throughput DNA sequencing^46,47 as a single sample.
(§3) To rapidly identify the DNA-linked macrocycles that survived target affinity selection, we used Solexa (Illumina) DNA sequencing technology.^48 Because standard Solexa sequencing read lengths at the time of this experiment were shorter than the length of our barcoded library templates (84 base pairs), the paired-end sequencing method, which provides both forward and reverse sequencing reads for each template, was used. We created a PERL computer program to analyze the large amount of data emerging from high-throughput sequencing. First, forward and reverse sequence reads were merged to give complete template sequences (FIG. 4a). Each complete DNA sequence was converted into a combination of a barcode (selection identity) and three codons (building block identities). Template sequences were then binned by barcode to deconvolute the results of each selection. The abundance fraction of each library member was determined within each selection by counting the number of corresponding DNA sequence occurrences and dividing by the total number of interpretable sequence reads for that selection. Finally, enrichment factors for each library member were computed by dividing post-selection abundance fraction by pre-selection abundance fraction. In total, we received 25.6 million paired forward and reverse sequence reads from two Solexa sequencing runs. Of these, all four codons (which require five out of six correct bases per codon for the building blocks, and three out of three correct bases per codon for the scaffold^24) and the selection barcode (which requires four out of five correct bases) could be conclusively assigned for 12.4 million sequences. As a result, we obtained ˜200,000 sequence reads for each selection, and 1.7 million sequence reads of the pre-selection library.
(§4) In vitro selections of the 13,824-membered library were conducted exactly as described above for the positive control selections. For each selection, 5 pmol of library were used. PCR amplification of selection survivors was performed with 5′-barcoded forward and reverse primers. Barcoded PCR amplicons were quantitated using Picogreen dsDNA quantitation reagent (Invitrogen), mixed in equimolar amounts, and submitted for high-throughput DNA sequencing.

[2] = target: Pim1 (Homo sapiens, UniProt P11309); test: as above; format: binding; details: one round of selection; DNA-linked library member
Pim1, sequence (P11309 whole entry): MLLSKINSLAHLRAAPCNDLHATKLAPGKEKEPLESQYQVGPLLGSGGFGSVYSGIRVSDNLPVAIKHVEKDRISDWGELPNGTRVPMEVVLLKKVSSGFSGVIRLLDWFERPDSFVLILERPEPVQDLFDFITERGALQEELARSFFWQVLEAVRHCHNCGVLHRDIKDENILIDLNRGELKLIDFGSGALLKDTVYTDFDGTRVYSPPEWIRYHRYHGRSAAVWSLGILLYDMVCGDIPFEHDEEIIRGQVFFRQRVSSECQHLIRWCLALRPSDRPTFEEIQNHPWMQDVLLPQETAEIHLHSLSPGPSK
Description: as §1, §2, §3, §4

[3] = test system: protein kinases; details: judged by similar criteria; cited from earlier work
[4] = test system: panel of 58 commercially available human protein kinases; test: Kinase selectivity panel, Invitrogen SelectScreen; format: biochemical
Procedure: Macrocycle cis-A11-B1-C5-D7 was assayed at 50 μM against a representative panel of 58 commercially available human protein kinases including all nine mammalian Src family kinases (Table 8).
(§5) Src IC50 determinations and single-point inhibition measurements were performed using Invitrogen's Z′-LYTE Tyr 02 assay kit according to the manufacturer's protocols. All kinase assays were performed at ATP concentrations near KM,ATP values, except where noted otherwise. Active human Src kinase was obtained from Millipore. For kinome profiling and IC50 determinations against non-Src kinases, compounds were submitted to Invitrogen's SelectScreen Kinase Profiling Service.

[5] = target: ABL1 (Homo sapiens, UniProt P00519); test: SelectScreen kinase profiling; format: biochemical
ABL1, sequence (P00519 whole entry): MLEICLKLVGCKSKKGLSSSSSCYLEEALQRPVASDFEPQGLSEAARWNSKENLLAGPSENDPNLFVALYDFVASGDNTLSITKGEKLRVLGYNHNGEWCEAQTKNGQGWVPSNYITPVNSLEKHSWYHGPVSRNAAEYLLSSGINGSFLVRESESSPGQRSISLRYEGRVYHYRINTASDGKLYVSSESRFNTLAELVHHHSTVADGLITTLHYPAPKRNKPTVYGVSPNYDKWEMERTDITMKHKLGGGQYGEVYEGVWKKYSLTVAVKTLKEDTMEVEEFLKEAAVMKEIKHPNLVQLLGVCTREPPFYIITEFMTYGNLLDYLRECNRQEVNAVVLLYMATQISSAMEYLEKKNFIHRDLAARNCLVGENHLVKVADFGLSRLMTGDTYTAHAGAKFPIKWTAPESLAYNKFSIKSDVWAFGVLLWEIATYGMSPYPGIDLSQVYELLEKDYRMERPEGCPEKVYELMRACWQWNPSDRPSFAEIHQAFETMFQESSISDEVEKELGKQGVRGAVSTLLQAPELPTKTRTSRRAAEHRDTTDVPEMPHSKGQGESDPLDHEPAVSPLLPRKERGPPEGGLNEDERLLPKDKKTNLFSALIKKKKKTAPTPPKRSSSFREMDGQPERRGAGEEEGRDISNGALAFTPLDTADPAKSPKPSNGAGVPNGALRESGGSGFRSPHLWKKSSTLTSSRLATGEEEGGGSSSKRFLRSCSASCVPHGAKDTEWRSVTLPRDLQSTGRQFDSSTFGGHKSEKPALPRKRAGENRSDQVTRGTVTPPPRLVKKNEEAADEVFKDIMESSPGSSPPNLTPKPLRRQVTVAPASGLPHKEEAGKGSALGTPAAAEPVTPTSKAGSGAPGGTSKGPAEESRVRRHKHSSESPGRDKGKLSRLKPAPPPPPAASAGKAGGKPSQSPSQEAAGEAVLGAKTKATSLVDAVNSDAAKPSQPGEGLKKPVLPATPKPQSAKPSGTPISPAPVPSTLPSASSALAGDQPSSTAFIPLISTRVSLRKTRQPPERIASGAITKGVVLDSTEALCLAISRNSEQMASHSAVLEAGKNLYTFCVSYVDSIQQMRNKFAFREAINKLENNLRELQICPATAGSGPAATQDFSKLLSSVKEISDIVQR
Procedure: as §5

[6] = target: T1, AURKA (Aurora A) (Homo sapiens, UniProt O14965); test: SelectScreen kinase profiling; format: biochemical
T1 sequence (O14965 1-403): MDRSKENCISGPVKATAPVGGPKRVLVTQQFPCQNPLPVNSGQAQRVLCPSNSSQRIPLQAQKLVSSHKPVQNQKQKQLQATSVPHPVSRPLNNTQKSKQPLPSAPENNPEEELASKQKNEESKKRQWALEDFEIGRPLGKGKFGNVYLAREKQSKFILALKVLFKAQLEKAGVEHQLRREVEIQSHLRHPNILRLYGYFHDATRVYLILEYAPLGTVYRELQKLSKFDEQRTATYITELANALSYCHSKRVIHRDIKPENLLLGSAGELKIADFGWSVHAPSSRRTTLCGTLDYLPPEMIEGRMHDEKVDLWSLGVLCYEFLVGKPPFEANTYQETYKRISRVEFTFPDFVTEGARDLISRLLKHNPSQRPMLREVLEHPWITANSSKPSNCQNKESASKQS
Procedure: as §5

[7] = target: AURKB (Aurora B) (Homo sapiens, UniProt Q96GD4); test: SelectScreen kinase profiling; format: biochemical
AURKB (Aurora B), sequence (Q96GD4 whole entry): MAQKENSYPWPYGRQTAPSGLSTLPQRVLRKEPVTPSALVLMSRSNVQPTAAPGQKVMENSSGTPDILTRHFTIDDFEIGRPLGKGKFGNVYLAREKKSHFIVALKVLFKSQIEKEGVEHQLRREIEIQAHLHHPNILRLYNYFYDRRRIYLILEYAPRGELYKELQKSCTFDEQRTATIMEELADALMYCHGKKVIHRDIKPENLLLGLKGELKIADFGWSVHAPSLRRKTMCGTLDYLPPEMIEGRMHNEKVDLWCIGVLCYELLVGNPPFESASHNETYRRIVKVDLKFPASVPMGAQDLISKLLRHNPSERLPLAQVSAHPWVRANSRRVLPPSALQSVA
Procedure: as §5

[8] = target: FGR (Homo sapiens, UniProt P09769); test: SelectScreen kinase profiling; format: biochemical; details: Fgr; 10-point titration
FGR, sequence (P09769 whole entry): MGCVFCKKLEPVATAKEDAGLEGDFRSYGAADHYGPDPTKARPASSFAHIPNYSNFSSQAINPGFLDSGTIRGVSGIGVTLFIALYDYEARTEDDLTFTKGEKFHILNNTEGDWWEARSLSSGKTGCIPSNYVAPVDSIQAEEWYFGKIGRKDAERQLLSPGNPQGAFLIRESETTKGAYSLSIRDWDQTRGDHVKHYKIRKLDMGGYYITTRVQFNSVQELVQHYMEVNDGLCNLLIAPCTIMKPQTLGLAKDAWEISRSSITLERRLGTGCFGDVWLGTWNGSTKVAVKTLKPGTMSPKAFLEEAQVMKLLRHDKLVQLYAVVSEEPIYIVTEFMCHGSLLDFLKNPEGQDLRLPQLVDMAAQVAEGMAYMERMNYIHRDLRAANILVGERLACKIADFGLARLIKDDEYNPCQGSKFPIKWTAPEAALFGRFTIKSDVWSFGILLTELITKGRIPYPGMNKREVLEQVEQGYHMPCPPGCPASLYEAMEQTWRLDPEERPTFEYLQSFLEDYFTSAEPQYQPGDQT
Procedure: as §5

[9] = target: FYN (Homo sapiens, UniProt P06241); test: SelectScreen kinase profiling; format: biochemical
FYN, sequence (P06241 whole entry): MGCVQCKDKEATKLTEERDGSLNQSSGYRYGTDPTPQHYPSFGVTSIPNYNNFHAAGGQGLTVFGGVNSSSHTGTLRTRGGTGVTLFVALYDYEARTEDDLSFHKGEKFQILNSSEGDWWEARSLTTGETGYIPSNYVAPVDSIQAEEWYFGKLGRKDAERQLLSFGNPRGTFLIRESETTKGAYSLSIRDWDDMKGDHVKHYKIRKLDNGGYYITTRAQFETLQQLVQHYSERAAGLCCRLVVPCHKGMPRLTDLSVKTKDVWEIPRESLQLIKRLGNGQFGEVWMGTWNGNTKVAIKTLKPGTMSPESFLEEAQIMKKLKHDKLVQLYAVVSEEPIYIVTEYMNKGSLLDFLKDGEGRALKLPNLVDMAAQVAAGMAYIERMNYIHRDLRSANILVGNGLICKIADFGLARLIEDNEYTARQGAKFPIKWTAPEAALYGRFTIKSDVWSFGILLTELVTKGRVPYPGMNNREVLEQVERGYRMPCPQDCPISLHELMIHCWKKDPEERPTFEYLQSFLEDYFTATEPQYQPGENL
Procedure: as §5

[10] = target: T2, HCK (Homo sapiens, UniProt P08631); test: SelectScreen kinase profiling; format: biochemical
Procedure: as §5

[11] = target: RET (Homo sapiens, UniProt P07949); test: SelectScreen kinase profiling; format: biochemical; details: 10-point titration
Procedure: as §5

[12] = target: T3, Abl (Homo sapiens, UniProt P00519); test: Continuous spectrophotometric kinase activity assay; format: biochemical
T3 construct: human c-Abl (residues 229-512); made in house
T3 sequence (P00519 229-512): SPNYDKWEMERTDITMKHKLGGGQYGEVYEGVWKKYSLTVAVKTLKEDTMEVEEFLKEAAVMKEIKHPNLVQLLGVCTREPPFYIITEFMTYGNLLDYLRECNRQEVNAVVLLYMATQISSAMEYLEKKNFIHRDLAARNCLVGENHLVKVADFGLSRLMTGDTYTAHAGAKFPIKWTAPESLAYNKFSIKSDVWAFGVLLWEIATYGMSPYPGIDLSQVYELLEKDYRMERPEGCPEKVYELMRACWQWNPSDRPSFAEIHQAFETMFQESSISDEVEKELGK
Description: (§6) Kinase domain constructs of human c-Abl (residues 229-512), chicken c-Src (residues 251-533 and residues 83-533), murine Lck (residues 227-509), and human Hck (residues 166-445) were expressed as previously described (Seeliger, Young et al. 2005; Seeliger, Nagar et al. 2007; the entire contents of each of which are incorporated by reference herein). Mutations were introduced into chicken c-Src (residues 251-533) (T338I, C277Q, L297M) by site-directed mutagenesis and verified by DNA sequencing.
(§7) In vitro kinase inhibition assays were performed using either a continuous spectrophotometric assay or a FRET-based endpoint assay.
(§8) The original characterization of kinase inhibition was performed with a commercial kinase assay that relies on a fluorescently labeled peptide kinase substrate (Z-LYTE, Invitrogen). For further characterization, a continuous spectrophotometric kinase activity assay was employed that is easily adapted to different substrate peptides as well as a wider range of peptide and ATP concentrations.

[13] = target: T4, Src kinase domain (chicken c-Src residues 251-533) (Gallus gallus, UniProt P00523); test: as above; format: biochemical; details: for IC50: Src kinase domain
T4 construct: chicken c-Src (residues 251-533 and residues 83-533); made in house
Description: as §6, §7, §8

[14] = target: T5, Lck (Mus musculus, UniProt P06240); test: as above; format: biochemical, murine
T5 construct: murine Lck (residues 227-509); made in house
T5 sequence (P06240 227-509): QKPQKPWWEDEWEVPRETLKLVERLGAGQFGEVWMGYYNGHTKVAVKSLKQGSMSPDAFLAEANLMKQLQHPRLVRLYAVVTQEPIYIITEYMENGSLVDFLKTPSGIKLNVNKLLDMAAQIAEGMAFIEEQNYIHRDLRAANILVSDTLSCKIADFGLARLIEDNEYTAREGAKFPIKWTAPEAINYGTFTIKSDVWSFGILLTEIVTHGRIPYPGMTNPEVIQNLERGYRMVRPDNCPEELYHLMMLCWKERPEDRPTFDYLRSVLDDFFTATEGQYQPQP
Description: as §6, §7, §8

[15] = target: T6, Src kinase domain (Gallus gallus, UniProt P00523); test: Fluorescence anisotropy binding assay; design: species or system chicken; details: fluorescein-labeled macrocycle, read-out: dissociation constant (KD)
T6 construct: chicken c-Src (residues 251-533 and residues 83-533); made in house
Procedure: The change in fluorescence anisotropy of fluorescein-labeled MC1, MC4 and MC9 at 518 nm upon excitation at 492 nm was monitored with a HORIBA Jobin Yvon FluoroMax-4 (Edison, N.J.) spectrofluorimeter. Kinase was titrated to 0.5 μM of the fluorescently labeled macrocycle in 100 mM Tris pH 8.0, 10 mM MgCl2 at 25° C. After equilibration, the increase in the fluorescence anisotropy of the fluorescently labeled ligand was recorded and fitted against a quadratic binding equation in Kaleidagraph (Synergy Software, Reading Pa.) to yield the dissociation constant KD.
To clarify the inhibitory mechanism of the compounds further, the binding affinity of fluorescently labeled MC1, MC4, and MC9 to Src kinase domain was determined in a fluorescence anisotropy assay (FIG. 21).

[16] = target: T7, Src kinase (Homo sapiens, UniProt P12931); test: Z'-LYTE kinase assay (Invitrogen), Src; format: biochemical; design: full-length kinase in the Z-LYTE assay vs. kinase domain in the current study; purchased Millipore
T7 sequence (P12931 whole entry, the tested form may be a part): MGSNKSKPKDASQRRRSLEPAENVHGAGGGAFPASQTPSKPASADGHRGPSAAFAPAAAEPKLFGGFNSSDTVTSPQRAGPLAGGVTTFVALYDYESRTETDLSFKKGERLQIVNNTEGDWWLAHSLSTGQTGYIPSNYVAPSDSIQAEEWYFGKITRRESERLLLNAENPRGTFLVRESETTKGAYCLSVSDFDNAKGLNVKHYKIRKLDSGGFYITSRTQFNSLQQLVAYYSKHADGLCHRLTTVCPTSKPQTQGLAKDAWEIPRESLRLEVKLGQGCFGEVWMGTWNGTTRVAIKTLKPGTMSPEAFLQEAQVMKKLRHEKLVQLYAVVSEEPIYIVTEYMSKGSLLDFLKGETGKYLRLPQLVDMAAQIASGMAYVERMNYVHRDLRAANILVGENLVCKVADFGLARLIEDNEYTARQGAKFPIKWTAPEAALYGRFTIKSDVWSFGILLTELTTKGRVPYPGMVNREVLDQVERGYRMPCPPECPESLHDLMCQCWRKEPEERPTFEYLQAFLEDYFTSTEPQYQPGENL
Procedure: Nine macrocycles enriched in the Src selection (FIG. 5) and synthesized as described above were assayed in vitro for the ability to inhibit Src kinase activity. Kinase activity was assayed in the presence of varying concentrations of macrocycle using the FRET-based Z′-LYTE assay (Invitrogen).
as §5

[17] = target: T2, HCK; test: Continuous spectrophotometric kinase activity assay; format: biochemical; design: Kinase domain constructs of human c-Abl (residues 229-512), chicken c-Src (residues 251-533 and residues 83-533), murine Lck (residues 227-509), and human Hck (residues 166-445); made in house
Description: as §6, §7, §8
Target sequence in this assay (P08631 262-515 limits assumed): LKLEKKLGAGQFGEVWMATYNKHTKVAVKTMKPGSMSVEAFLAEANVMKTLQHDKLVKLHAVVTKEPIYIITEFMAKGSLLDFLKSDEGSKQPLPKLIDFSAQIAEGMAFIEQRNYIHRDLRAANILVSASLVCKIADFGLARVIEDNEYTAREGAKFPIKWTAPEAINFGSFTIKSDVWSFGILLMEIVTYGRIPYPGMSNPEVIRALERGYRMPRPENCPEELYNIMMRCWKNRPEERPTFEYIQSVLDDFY

[18] = target: BcLxL (1-209, Δ45-84, N-terminal GST-fused) (UniProt Q07817); test: single round of affinity selection of the DNA-linked peptide on GST-Bcl-xL on glutathione beads; restriction digestion
BcLxL (1-209, Δ45-84, N-terminal GST-fused), sequence (Q07817 other isoform, or with tags, fused parts or gaps mutant): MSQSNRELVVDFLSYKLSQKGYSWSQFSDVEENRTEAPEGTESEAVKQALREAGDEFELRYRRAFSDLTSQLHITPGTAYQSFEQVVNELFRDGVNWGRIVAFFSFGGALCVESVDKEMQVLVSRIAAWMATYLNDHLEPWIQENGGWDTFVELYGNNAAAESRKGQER

[19] = target: T7, Src kinase; test: In vitro selection of DNA-templated macrocycle library against GST-fused target; format: binding; details: one round of selection; DNA-linked library member
Description: as §1, §2, §3, §4

[20] = 5 μM ATP, 100 μM Src optimal peptide
[21] = 5 μM ATP, 300 μM Src optimal peptide
[22] = 250 μM ATP, 300 μM Src optimal peptide

MAPKAPK2, sequence (P49137 whole entry, the tested form may be a part): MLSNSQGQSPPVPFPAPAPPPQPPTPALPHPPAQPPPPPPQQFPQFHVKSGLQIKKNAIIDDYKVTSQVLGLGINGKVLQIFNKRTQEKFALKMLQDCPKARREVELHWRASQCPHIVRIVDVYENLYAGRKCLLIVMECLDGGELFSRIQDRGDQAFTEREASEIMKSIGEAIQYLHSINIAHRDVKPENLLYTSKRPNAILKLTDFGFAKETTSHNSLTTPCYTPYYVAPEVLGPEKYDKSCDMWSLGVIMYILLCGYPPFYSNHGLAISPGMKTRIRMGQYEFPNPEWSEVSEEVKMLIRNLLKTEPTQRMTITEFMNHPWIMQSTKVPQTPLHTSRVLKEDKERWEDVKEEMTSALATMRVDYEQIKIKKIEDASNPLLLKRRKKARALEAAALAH

For `NC(=O)[C@@H]1CNC(=O)C=CC(=O)N[C@@H](C/C=C/c2ccccc2)C(=O)N[C@@H](CC2CCCCC2)C(=O)N[C@H](Cc2ccc(C(=O)c3ccccc3)cc2)C(=O)N1` [A12-B8-C10-D4], the “enrichment upon selection for binding MAPKAPK2” value [1] was 3 fold and the “enrichment upon selection for binding Pim1” value [2] was 10 fold.

With `NC(=O)[C@@H]1CNC(=O)[C@@H](Cc2ccc(C(=O)c3ccccc3)cc2)NC(=O)[C@H](CC2CCCCC2)NC(=O)[C@H](C/C=C/c2ccccc2)NC(=O)C=CC(=O)N1` [A12-B8-C10-D8] the “enrichment upon selection for binding MAPKAPK2” value [1] was 2.5 fold and the “enrichment upon selection for binding Pim1” value [2] was 6 fold.

For `CN[C@@H]1C[C@H]2O[C@@](C)([C@@H]1OC)n1c3ccccc3c3c4c(c5c6ccccc6n2c5c31)C(=O)NC4` [staurosporine], the selectivity score [3] is listed as 0.50.

With `NC(=O)[C@@H]1CCNC(=O)[C@H](CCCNC(=O)c2cnccn2)NC(=O)[C@H](Cc2ccco2)NC(=O)[C@H](CC2CC2)NC(=O)/C=C\C(=O)N1` [cis-A11-B1-C5-D7] the “selectivity for Src over all remaining Src-family kinases with the exception of Fgr” value [4] was > 10 fold, the selectivity score ([4]; fraction of non-target kinases with IC50 within 10-fold of Src IC50 (960 nM)) was 0.05 and the “selectivity for Src over Abl kinase” value [5] was > 50 fold. For the same compound, the IC50 ([6]; Aurora A, 10-point titration) was 1700 nM, the “selectivity for Aurora A over Aurora B” value [7] was > 50 fold and the IC50 [8] was 4 µM. The “selectivity for Src over Fyn” value [9] was > 50 fold, the “selectivity for Src over Hck” value [10] was > 50 fold and the IC50 [11] was 5.7 µM. For the same compound, the IC50 [12, 20] was > 100 µM, the IC50 [12, 21] was > 100 µM and the IC50 [12, 22] was > 100 µM. For the same compound, the IC50 [13, 20] was 16 µM, the IC50 [13, 21] was 26 µM and the IC50 [13, 22] was 89 µM. The “increase in IC50 upon increasing substrate peptide 3-fold to 300 μM” value ([13]; Src optimal substrate peptide 100 to 300 μM) was 50%, the IC50 [14, 20] was > 100 µM and the IC50 [14, 21] was > 100 µM. For the same compound, the IC50 [14, 22] was > 100 µM, the Kd ([15]; 250 μM AMP-PNP) was 3300 nM and the Kd ([15]; no competitor) was 2100 nM. For the same compound, the IC50 ([16]; Z'-LYTE, ATP near KM) was 960 nM, the “mode of Src inhibition” value ([16]; apparent KM for ATP versus macrocycle concentration) was “ATP-competitive” and the IC50 [17, 20] was > 100 µM. The IC50 [17, 21] was > 100 µM and the IC50 [17, 22] was > 100 µM.

With Bak peptide (DNA-linked) the Enrichment Factor [18] was 200.

In the case of `NC(=O)[C@@H]1CCNC(=O)C=CC(=O)N[C@@H](C/C=C/c2ccccc2)C(=O)N[C@@H](CC2CCCCC2)C(=O)N[C@H](Cc2ccc(C(=O)c3ccccc3)cc2)C(=O)N1` [A12-B8-C10-D3], the “enrichment upon selection for binding MAPKAPK2” value [1] is reported as 3 fold and the “enrichment upon selection for binding Pim1” value [2] is reported as 3.5 fold.

With `NC(=O)[C@@H]1CCNC(=O)[C@H](CCCNC(=O)c2cnccn2)NC(=O)[C@H](Cc2ccco2)NC(=O)[C@H](CC2CC2)NC(=O)C=CC(=O)N1` [Macrocycle A11-B1-C5-D7] the “enrichment factor after selection against Src kinase” value [19] was 62 fold, the “selectivity for Src over Abl kinase” value [5] was > 50 fold and the “selectivity for Aurora A among the Aurora family” value [6] was > 100 fold. For the same compound, the “difference in potency between cis and trans stereoisomers (Src)” value [16] was ~10 fold.
